The term AC50 denotes the concentration at which the activity in the assay is half-maximal. A word on the IC50: it is the midpoint of a concentration-inhibition curve. The term EC50 denotes the concentration needed to bring the measured effect to its halfway point. A word on the Ki: it is a dissociation constant, usually derived from enzyme kinetics or from competition with a known ligand.

The source of these data is ChEMBL document CHEMBL1201862, “PubChem BioAssay data set” (2004).

A short description of test [1]: MITF Measured in Cell-Based System Using Plate Reader - 2084-01_Inhibitor_Dose_DryPowder_Activity_Set6. It is filed as functional.
Test [2] in a line: MITF Orthogonal Assay: MALME3 CTG Assay Measured in Cell-Based System Using Plate Reader - 2084-04_Inhibitor_Dose_DryPowder_Activity_Set6. It is filed as functional. To be noted: MALME-3.
The nature of test [3]: A375 melanoma cell cytotoxicity, dose response, counter-screen for MITF inhibitor project, CellTiter-Glo luminescence, dry powder, set 6 (AID 624488). The format is functional, cell-based. The settings on record: A-375. In general terms: A counterscreen serves to expose hits that act by an unwanted route or on another target.
In test [4] the target is Dual specificity tyrosine-phosphorylation-regulated kinase 1A (Rattus norvegicus, UniProt Q63470). It is filed as biochemical, Homo sapiens.
Test [5] concerns the target T1, Rac GTPase-activating protein 1 (Homo sapiens, UniProt Q9H0H5).
T1 sequence (Q9H0H5 whole entry): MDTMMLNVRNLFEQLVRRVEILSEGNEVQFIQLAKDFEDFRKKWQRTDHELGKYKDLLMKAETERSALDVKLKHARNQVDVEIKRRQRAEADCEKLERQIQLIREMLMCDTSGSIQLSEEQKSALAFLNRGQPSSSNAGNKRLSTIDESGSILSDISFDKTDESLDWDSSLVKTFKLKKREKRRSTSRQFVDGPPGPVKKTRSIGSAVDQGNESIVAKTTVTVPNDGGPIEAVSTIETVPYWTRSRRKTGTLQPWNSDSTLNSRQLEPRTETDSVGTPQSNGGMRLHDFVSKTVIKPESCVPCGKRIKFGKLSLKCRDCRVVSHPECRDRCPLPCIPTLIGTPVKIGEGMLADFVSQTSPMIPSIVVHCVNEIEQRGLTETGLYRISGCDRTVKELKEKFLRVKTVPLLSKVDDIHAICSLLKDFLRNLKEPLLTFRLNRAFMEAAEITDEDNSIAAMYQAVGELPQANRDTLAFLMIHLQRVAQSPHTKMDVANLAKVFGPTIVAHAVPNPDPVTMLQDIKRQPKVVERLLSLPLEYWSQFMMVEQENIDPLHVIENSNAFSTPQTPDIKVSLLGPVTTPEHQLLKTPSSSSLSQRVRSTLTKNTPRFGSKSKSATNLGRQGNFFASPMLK
The experiment in a line: MgcRacGAP GTPase-activating activity inhibitors, confirmation, biochemical, ADP Hunter fluorescence, primary and confirmatory (AID 624330). The format is functional.

The target in test [6] is Intestinal-type alkaline phosphatase (Mus musculus, UniProt P24822). The experiment in a line: mouse intestinal alkaline phosphatase activators, dose response, biochemical, luminescence, uHTS hits (AID 488783). The format is functional.
The next test addresses Ephrin type-A receptor 4 (Mus musculus, UniProt Q03137). As to the kind of experiment: inhibitors of EphA4 binding to KYL peptide, primary screen, biochemical, colorimetric, mouse EphA4 (AID 689). The format is functional.
Test [7] addresses T2, Heat shock factor protein 1 (Mus musculus, UniProt P38532).
T2 sequence (P38532 whole entry): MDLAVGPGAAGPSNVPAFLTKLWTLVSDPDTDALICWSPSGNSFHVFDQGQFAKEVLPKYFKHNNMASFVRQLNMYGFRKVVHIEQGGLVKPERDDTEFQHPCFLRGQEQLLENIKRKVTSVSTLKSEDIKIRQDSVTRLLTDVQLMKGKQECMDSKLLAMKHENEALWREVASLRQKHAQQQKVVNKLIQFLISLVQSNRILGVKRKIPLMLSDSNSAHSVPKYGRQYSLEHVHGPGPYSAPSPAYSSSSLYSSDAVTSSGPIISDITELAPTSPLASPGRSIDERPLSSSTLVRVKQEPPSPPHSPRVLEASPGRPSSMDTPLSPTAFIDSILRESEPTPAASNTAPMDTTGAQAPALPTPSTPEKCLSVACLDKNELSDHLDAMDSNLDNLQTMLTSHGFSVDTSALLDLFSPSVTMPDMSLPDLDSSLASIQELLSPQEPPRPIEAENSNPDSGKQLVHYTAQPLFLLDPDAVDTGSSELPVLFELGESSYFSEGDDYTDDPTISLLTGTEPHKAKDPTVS
The experiment in a line: HSF1 potentiators in luciferase reporter cells, confirmation, cell-based, NIH3T3, luminescence, dose retest (AID 435004).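 Further: stress induced by proteasome inhibitor MG132 added 30 min after compound; luciferase reporter driven by HSF1 response element in NIH3T3 cells; actives raise luminescence as potentiators of the MG132 stress response.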 The format is functional. A general note: A reporter such as luciferase makes a cellular process visible.

Test [8] in a line: cytotoxicity in KRAS-transformed pancreatic duct cells, primary screen, cell-based, fluorescence, HTS (AID 431).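 Further: cell line used: HPDE-C7K.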 The format is functional. The settings on record: Homo sapiens.
The target in test [9] is T3, Orexin/Hypocretin receptor type 1 (Homo sapiens, UniProt O43613).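 Further: antagonism measured against Orexin-A challenge at about its EC80.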
T3 sequence (O43613 whole entry): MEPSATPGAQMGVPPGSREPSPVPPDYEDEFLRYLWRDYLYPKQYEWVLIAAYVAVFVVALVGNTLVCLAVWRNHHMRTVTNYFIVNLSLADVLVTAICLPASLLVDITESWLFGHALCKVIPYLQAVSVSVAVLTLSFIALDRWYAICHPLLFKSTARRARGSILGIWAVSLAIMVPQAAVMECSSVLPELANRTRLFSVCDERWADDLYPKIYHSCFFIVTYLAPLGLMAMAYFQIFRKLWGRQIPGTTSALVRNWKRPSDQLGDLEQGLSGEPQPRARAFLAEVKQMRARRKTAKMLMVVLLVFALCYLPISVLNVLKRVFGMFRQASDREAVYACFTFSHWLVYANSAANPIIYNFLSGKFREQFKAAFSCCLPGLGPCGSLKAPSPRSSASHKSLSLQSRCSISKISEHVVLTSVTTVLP
As to the kind of experiment: Homogeneous Time Resolved Fluorescence (HTRF)-based cell-based high throughput dose response assay for antagonists of the orexin 1 receptor (OX1R; HCRTR1). [Related pubchem assays (depositor defined):AID434989, AID435008, AID463079, AID485270, AID492963, AID492964, AID492965, AID493232, AID504717, AID504718]. It is filed as functional.

Test [10] concerns the target Proto-oncogene tyrosine-protein kinase Src (Homo sapiens, UniProt P12931). The format is functional.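 Further: SRC entry within a kinome-wide kinase profiling panel.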
The target of test [11] is Tyrosine-protein kinase Blk (Homo sapiens, UniProt P51451). It is filed as functional.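 Further: obtained as one member of a kinome-wide kinase assay panel.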
The target in test [12] is STE20-like serine/threonine-protein kinase (Homo sapiens, UniProt Q9H2G2). The format is functional.
Chain of STE20-like serine/threonine-protein kinase (Q9H2G2 whole entry): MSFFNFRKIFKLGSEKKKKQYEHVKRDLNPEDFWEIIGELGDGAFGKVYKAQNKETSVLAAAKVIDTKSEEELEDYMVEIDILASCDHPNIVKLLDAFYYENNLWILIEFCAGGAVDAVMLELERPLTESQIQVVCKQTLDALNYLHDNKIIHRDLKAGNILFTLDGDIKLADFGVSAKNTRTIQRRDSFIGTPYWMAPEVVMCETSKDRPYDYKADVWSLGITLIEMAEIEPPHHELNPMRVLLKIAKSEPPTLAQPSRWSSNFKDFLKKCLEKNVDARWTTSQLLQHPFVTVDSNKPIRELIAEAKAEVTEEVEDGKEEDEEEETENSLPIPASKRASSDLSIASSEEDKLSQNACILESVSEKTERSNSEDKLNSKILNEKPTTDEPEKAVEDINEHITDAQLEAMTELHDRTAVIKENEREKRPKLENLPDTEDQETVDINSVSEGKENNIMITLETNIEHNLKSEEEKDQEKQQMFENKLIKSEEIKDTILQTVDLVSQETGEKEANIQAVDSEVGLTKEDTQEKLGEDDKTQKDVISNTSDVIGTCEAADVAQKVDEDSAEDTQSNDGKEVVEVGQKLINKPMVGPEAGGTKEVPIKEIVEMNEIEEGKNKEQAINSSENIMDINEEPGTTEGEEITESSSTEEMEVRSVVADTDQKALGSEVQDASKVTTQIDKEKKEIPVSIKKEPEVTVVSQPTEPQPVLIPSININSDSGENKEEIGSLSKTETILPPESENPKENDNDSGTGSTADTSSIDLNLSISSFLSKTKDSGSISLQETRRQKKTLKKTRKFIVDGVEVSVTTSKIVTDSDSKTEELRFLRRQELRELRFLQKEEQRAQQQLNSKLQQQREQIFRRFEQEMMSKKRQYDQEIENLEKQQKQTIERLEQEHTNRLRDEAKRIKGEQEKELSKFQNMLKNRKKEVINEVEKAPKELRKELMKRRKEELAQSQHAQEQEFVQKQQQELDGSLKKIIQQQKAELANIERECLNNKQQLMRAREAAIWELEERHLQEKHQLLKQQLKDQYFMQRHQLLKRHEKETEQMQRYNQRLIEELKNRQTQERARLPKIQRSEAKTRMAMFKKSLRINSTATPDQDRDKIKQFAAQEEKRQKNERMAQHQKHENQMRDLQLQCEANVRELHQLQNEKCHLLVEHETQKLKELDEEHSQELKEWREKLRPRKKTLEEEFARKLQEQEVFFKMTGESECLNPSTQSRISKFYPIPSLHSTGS
Test [13] concerns the target Tyrosine-protein kinase receptor TYRO3 (Homo sapiens, UniProt Q06418). The format is functional.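 Further: TYRO3 value obtained as one member of a kinome-wide profiling panel.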
Test [14] concerns the target MAP kinase-activated protein kinase 5 (Homo sapiens, UniProt Q8IW41). The format is functional.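 Further: measured as one member of a kinome panel.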
The target in test [15] is Proto-oncogene tyrosine-protein kinase receptor Ret (Homo sapiens, UniProt P07949). The format is functional.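 Further: measured within a kinome-wide profiling panel, RET as the panel member.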
Chain of Proto-oncogene tyrosine-protein kinase receptor Ret (P07949 whole entry): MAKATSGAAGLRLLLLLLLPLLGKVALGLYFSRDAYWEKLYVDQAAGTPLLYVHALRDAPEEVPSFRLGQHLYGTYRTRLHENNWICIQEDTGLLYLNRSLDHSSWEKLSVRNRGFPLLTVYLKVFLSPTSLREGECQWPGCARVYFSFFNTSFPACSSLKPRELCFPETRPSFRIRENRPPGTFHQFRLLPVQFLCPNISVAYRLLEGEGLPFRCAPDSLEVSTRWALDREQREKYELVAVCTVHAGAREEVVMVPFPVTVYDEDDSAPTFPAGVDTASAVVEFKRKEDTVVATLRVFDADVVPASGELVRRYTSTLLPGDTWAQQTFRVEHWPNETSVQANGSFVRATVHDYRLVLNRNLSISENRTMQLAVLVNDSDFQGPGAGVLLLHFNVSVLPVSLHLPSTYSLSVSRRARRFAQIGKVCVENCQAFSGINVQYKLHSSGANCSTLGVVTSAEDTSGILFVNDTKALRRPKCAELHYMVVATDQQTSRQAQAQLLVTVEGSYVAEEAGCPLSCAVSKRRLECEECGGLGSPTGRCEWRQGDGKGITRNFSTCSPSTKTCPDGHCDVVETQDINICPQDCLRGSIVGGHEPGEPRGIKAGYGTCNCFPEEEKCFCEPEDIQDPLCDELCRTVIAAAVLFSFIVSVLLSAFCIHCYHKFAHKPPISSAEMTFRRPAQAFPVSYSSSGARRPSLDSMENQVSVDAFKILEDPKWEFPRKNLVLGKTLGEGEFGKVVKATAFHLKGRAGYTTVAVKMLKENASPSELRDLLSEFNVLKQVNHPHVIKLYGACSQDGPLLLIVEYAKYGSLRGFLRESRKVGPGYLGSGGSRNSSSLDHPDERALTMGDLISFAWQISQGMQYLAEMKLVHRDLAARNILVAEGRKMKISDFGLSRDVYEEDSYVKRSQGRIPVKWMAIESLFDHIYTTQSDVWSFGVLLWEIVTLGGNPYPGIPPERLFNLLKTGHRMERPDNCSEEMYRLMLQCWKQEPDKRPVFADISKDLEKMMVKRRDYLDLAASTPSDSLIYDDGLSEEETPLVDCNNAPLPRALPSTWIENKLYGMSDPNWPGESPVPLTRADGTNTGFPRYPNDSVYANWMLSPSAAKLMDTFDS
Test [16] addresses Cyclin-dependent kinase 9 (Homo sapiens, UniProt P50750). The format is functional.
For test [17], the target named is Maternal embryonic leucine zipper kinase (Homo sapiens, UniProt Q14680). It is filed as functional.
Chain of Maternal embryonic leucine zipper kinase (Q14680 whole entry): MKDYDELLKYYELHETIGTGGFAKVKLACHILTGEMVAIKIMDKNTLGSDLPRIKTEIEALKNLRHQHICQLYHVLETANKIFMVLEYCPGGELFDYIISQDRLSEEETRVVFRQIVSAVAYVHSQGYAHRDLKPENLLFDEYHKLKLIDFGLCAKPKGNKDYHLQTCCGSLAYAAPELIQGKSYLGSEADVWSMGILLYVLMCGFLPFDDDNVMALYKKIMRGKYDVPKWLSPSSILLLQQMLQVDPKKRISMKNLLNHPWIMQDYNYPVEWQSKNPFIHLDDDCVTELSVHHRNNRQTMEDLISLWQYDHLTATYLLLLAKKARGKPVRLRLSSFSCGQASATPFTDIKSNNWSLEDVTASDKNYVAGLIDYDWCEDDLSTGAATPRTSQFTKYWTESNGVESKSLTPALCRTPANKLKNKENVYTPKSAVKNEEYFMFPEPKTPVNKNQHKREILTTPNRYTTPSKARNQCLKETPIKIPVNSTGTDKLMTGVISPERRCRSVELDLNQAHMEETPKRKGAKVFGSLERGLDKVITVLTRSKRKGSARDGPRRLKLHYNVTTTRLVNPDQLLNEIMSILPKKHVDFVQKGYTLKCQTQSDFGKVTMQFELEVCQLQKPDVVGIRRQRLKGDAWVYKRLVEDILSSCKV
In test [18] the target is Calcium/calmodulin-dependent protein kinase type II subunit alpha (Homo sapiens, UniProt Q9UQM7). As to the kind of experiment: Navigating the Kinome. Panel member name: CAMK2A. It is filed as functional.
Chain of Calcium/calmodulin-dependent protein kinase type II subunit alpha (Q9UQM7 whole entry): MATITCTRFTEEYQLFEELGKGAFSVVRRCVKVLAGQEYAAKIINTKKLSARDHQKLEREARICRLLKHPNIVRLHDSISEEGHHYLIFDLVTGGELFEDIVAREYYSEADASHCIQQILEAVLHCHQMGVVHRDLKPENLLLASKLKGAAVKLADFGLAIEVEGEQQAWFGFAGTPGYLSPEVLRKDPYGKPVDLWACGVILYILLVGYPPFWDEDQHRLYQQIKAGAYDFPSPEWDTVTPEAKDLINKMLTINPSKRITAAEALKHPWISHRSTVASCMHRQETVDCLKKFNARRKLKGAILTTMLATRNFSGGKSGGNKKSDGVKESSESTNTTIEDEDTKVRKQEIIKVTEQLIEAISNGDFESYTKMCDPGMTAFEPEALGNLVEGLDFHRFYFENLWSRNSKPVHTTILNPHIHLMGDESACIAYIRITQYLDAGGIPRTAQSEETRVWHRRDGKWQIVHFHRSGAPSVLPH
The target of test [19] is Serine/threonine-protein kinase pim-2 (Homo sapiens, UniProt Q9P1W9). It is filed as functional.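 Further: value comes from a broad kinase panel profiling study in which PIM2 was one of the panel members.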

Calls of active or inactive are those of the source.

Chain of Cyclin-dependent kinase 9 (P50750 whole entry): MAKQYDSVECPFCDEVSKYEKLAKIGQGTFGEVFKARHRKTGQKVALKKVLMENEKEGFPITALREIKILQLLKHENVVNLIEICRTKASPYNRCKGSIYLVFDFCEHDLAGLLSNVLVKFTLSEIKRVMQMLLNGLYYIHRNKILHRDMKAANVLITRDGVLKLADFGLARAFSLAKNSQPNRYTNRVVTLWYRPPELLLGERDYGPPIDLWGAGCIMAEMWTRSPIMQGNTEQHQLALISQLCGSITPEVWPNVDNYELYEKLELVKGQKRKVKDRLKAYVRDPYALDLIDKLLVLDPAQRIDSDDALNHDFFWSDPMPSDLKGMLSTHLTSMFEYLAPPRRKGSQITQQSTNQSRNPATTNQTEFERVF
Chain of MAP kinase-activated protein kinase 5 (Q8IW41 whole entry): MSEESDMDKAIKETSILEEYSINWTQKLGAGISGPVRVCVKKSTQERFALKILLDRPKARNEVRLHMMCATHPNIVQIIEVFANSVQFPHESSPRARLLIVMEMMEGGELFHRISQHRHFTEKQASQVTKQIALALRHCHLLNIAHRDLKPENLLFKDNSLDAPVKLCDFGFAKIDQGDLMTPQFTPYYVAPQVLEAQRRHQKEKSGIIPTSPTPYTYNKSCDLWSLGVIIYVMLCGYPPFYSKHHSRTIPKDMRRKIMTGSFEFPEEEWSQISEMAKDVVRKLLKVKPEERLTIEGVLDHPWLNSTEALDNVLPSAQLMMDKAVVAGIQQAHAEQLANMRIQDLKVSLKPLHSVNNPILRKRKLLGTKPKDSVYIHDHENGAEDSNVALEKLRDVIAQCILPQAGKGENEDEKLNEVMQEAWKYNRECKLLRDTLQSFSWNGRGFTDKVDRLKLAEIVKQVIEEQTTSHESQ
Chain of Proto-oncogene tyrosine-protein kinase Src (P12931 2-536 limits assumed): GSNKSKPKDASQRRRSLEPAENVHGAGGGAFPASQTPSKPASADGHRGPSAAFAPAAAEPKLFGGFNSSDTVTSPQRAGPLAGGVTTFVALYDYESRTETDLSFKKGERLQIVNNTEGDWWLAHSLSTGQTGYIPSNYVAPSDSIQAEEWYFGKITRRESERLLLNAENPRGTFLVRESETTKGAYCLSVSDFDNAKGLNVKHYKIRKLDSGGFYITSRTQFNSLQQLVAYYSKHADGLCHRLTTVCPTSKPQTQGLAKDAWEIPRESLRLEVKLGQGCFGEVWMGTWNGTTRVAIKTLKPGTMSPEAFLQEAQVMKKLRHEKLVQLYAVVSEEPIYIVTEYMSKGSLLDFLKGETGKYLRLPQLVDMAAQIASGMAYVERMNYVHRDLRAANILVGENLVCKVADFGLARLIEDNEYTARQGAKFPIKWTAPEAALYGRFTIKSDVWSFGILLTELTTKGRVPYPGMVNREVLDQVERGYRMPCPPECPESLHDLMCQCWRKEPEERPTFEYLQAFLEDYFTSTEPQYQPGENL

As to `C=CCNC1=C(Cl)C(=O)c2ccccc2C1=O`, the AC50 in test [1] was 1560 nM (active); in test [2] it was 9990 nM (active); in [3], 50400 nM (active).
Take `CS(=O)(=O)c1ccc2c(c1)SC1=NC(=O)/C(=C/c3ccc(O)c(O)c3)C(=N)N12`: in [4], the AC50 was 2710 nM (active). For the same compound, in test [5], the IC50 is 38100 nM (active). Also, in test [6], the EC50 is 6350 nM (active).
Consider `CCOC(=O)C(C(=O)OCC)c1cc(Br)c2noc3c2c1C(=O)c1ccccc1-3`, for which the IC50 at Ephrin type-A receptor 4 was 300 nM (active). For the same compound, the figures for the EC50 in test [7] and in test [8] were > 260000 nM (inconclusive) and 3060 nM (active), respectively.
As to `CN(C)c1ccc(-c2nnc(-c3cccs3)o2)cc1`, the IC50 in test [9] was 3580 nM (active).
`COc1ccc(C(=O)Nc2n[nH]c3ccc(-c4cn(Cc5ccccc5)nn4)cc23)cc1OC`: the Ki is 316 nM (active) in test [10]; 1260 nM (active) in test [11]; 2000 nM (active) in [12]; > 2000 nM (inactive) in test [13]; 1260 nM (active) in [14]; 126 nM (active) in test [15]. The Ki was 501 nM (active) in test [16], 398 nM (active) in [17], 398 nM (active) in test [18] and > 2510 nM (inactive) in test [19].
